Laboratory results from patent US20230146455A1, “TREATMENT OF INFLAMMATORY DISEASES WITH PEPTIDES AND PHARMACEUTICAL COMPOSITIONS” (Yuyu Pharma, Inc., priority 2020, published 2023).
“And” between values parts separate entries of the source, which are not always exact repeats. Equal entries are not always repeated. Where a SMILES comes first, the peptide text is derived from it. [ ]: non-standard residue; d: D form. Hyp = O=C(O)[C@@H]1C[C@@H](O)CN1

Test system: TIMP-1
Assay: Example 9 Luminex, LPS hPBMCs: TIMP-1
Format: cell-based, human
Method: Treatment Human PBMCs were pretreated with YY-101, YDE-011 and YDE-043 or reference compound; Xiidra® at various concentration (ranging from 1 nM to 100 uM) for 2 h before stimulation. An equal volume of 0.5% DMSO was used as a vehicle control. Then, the cells were treated with LPS at 5 ug/ml. The supernatants from treated cells were harvested at 24 h and placed in a 96 well for Luminex cytokine & chemokine profiling using a Luminex 200 multiplex assay (Luminex; R&D system, USA).
The main study arm with triplicate wells per group in a 24-well plate: • 1. Blank • 2. PBMC: 0.5% DMSO • 3. PBMC+LPS (5 ug/ml) • 4. PBMC+YY-101 100 uM • 5. PBMC+YY-101 10 uM • 6. PBMC+YY-101 1 uM • 7. PBMC+YY-101 0.1 uM • 8. PBMC+YY-101 0.01 uM • 9. PBMC+LPS (5 ug/ml)+Xiidra®100 uM • 10. PBMC+LPS (5 ug/ml)+Xiidra® 10 uM • 11. PBMC+LPS (5 ug/ml)+Xiidra® 1 uM • 12. PBMC+LPS (5 ug/ml)+Xiidra®0.1 uM • 13. PBMC+LPS (5 ug/ml)+Xiidra®0.01 uM • 14. PBMC+LPS (5 ug/ml)+Xiidra®0.001 uM • 15. PBMC+LPS (5 ug/ml)+YY-101 100 uM • 16. PBMC+LPS (5 ug/ml)+YY-101 10 uM • 17. PBMC+LPS (5 ug/ml)+YY-101 1 uM • 18. PBMC+LPS (5 ug/ml)+YY-101 0.1 uM • 19. PBMC+LPS (5 ug/ml)+YY-101 0.01 uM • 20. PBMC+LPS (5 ug/ml)+YY-101 0.001 uM • 21. PBMC+LPS (5 ug/ml)+YDE-011 100 uM • 22. PBMC+LPS (5 ug/ml)+YDE-011 10 uM • 23. PBMC+LPS (5 ug/ml)+YDE-011 1 uM • 24. PBMC+LPS (5 ug/ml)+YDE-011 0.1 uM • 25. PBMC+LPS (5 ug/ml)+YDE-011 0.01 uM • 26. PBMC+LPS (5 ug/ml)+YDE-011 0.001 uM • 27. PBMC+LPS (5 ug/ml)+YDE-043 100 uM • 28. PBMC+LPS (5 ug/ml)+YDE-043 10 uM • 29. PBMC+LPS (5 ug/ml)+YDE-043 1 uM • 30. PBMC+LPS (5 ug/ml)+YDE-043 0.1 uM • 31. PBMC+LPS (5 ug/ml)+YDE-043 0.01 uM • 32. PBMC+LPS (5 ug/ml)+YDE-043 0.001 uM
Multiplex assay was used to measure 30 cytokines and chemokines. The 1:2, 1:10 and 1:200 diluted cell supernatant and serial dilution of the standard were dispensed into a 96 well plate at 50 ul/well. Then, the pre-mixed cocktail of antibody-coated magnetic beads was dispensed at 50 ul/well and incubated at room temperature for 2 h in a horizontal orbital microplate shaker at 800±500 rpm. The beads were washed using a magnetic device to prevent loss. The biotin-antibody was dispensed in 50 ul of each well and incubated at room temperature for 1 h in a shaker at 800±500 rpm. After washing, streptavidin-PE was added at 50 ul/well and incubated at room temperature for 30 min in a shaker under the same conditions. Finally, after washing, wash buffer (100 ul/well) was added to the plate and incubated in a shaker for 2 min. The Luminex™ 200 setting were set according to the manufacturer's protocol. The data was calculated with a standard five-parameter logistic nonlinear regression analysis of the data (xPonent software 4.2, USA). The levels of cytokine/chemokine are normalized to the live cell counts (1×10^5 cells/mL) and presented as concentrations per mL (pg/mL or ng/mL).

[1] = PBMC + LPS(5 ug/ml), test article 0.1 uM, Mean
[2] = PBMC + LPS(5 ug/ml), test article 0.1 uM, single replicates
[3] = PBMC + LPS(5 ug/ml), test article 1 uM, Mean
[4] = PBMC + LPS(5 ug/ml), test article 1 uM, single replicates
[5] = PBMC + LPS(5 ug/ml), test article 10 uM, Mean
[6] = PBMC + LPS(5 ug/ml), test article 10 uM, single replicates
[7] = PBMC + LPS(5 ug/ml), test article 100 uM, Mean
[8] = PBMC + LPS(5 ug/ml), test article 100 uM, single replicates
[9] = PBMC without LPS, test article 0.01 uM, Mean
[10] = PBMC without LPS, test article 0.01 uM, single replicates
[11] = PBMC without LPS, test article 0.1 uM, Mean
[12] = PBMC without LPS, test article 0.1 uM, single replicates
[13] = PBMC without LPS, test article 1 uM, Mean
[14] = PBMC without LPS, test article 1 uM, single replicates
[15] = PBMC without LPS, test article 10 uM, Mean
[16] = PBMC without LPS, test article 10 uM, single replicates
[17] = PBMC without LPS, test article 100 uM, Mean
[18] = PBMC without LPS, test article 100 uM, single replicates

With `CC(C)C[C@H](NC(=O)CNC(=O)[C@H](CC(=O)O)NC(=O)[C@H](CCC(N)=O)NC(=O)CNC(=O)[C@@H]1C[C@@H](O)CN1)C(=O)N[C@@H](C)C(=O)NCC(=O)N1CCC[C@H]1C(=O)N[C@@H](CCCCN)C(=O)O` [YY-101] (H-[Hyp]GQDGLAGPK-OH; N-terminus and C-terminus assumed) as the molecule, how does the TIMP-1 conc/live cell (PBMC + LPS(5 ug/ml), test article 0.01 uM, single replicates) read?
The TIMP-1 conc/live cell was 411.9 pg/10^5 and 425.4 pg/10^5 and 453.3 pg/10^5.

And the “TIMP-1 Concentration” value [1]?
The value was 2599.6 pg/mL.

And the “TIMP-1 MFI” value [1]?
Its value is 1542.0.

And the TIMP-1 conc/live cell [1]?
Its TIMP-1 conc/live cell is 445.1 pg/10^5.

And the “TIMP-1 Concentration” value [2]?
The value was 2721.3 pg/mL and 2498.6 pg/mL and 2578.7 pg/mL.

And the “TIMP-1 MFI” value [2]?
The value was 1634.5 and 1465.5 and 1526.0.

What about the TIMP-1 conc/live cell [2] of the same molecule?
Its TIMP-1 conc/live cell is 438.9 pg/10^5 and 480.5 pg/10^5 and 415.9 pg/10^5.

What about the “TIMP-1 Concentration” value [3] of the same molecule?
Its value is 2672.9 pg/mL.

And the “TIMP-1 MFI” value [3]?
The value was 1597.7.

And the TIMP-1 conc/live cell [3]?
Its TIMP-1 conc/live cell is 410.8 pg/10^5.

And the “TIMP-1 Concentration” value [4]?
The value was 2614.9 pg/mL and 2656.4 pg/mL and 2747.5 pg/mL.

And the “TIMP-1 MFI” value [4]?
The value was 1553.5 and 1585.0 and 1654.5.

What about the TIMP-1 conc/live cell [4] of the same molecule?
The TIMP-1 conc/live cell was 415.1 pg/10^5 and 374.1 pg/10^5 and 443.2 pg/10^5.

What about the “TIMP-1 Concentration” value [5] of the same molecule?
The value was 2693.7 pg/mL.

What about the “TIMP-1 MFI” value [5] of the same molecule?
Its value is 1613.7.

And the TIMP-1 conc/live cell [5]?
Its TIMP-1 conc/live cell is 409.5 pg/10^5.

And the “TIMP-1 Concentration” value [6]?
The value was 2741.7 pg/mL and 2801.1 pg/mL and 2538.4 pg/mL.

And the “TIMP-1 MFI” value [6]?
The value was 1650.0 and 1695.5 and 1495.5.

What about the TIMP-1 conc/live cell [6] of the same molecule?
Its TIMP-1 conc/live cell is 456.9 pg/10^5 and 437.7 pg/10^5 and 334.0 pg/10^5.

And the “TIMP-1 Concentration” value [7]?
Its value is 3324.7 pg/mL.

And the “TIMP-1 MFI” value [7]?
Its value is 2100.3.

And the TIMP-1 conc/live cell [7]?
The TIMP-1 conc/live cell was 574.3 pg/10^5.

And the “TIMP-1 Concentration” value [8]?
Its value is 3425.7 pg/mL and 3369.3 pg/mL and 3179.1 pg/mL.

And the “TIMP-1 MFI” value [8]?
Its value is 2179.0 and 2135.0 and 1987.0.

What about the TIMP-1 conc/live cell [8] of the same molecule?
Its TIMP-1 conc/live cell is 543.8 pg/10^5 and 543.4 pg/10^5 and 635.8 pg/10^5.

What about the “TIMP-1 Concentration” value [9] of the same molecule?
Its value is 5306.9 pg/mL.

What about the “TIMP-1 MFI” value [9] of the same molecule?
Its value is 3666.0.

What about the TIMP-1 conc/live cell [9] of the same molecule?
Its TIMP-1 conc/live cell is 1065.2 pg/10^5.

What about the “TIMP-1 Concentration” value [10] of the same molecule?
The value was 5042.4 pg/mL and 5571.4 pg/mL.

And the “TIMP-1 MFI” value [10]?
Its value is 3456.0 and 3876.0.

And the TIMP-1 conc/live cell [10]?
The TIMP-1 conc/live cell was 969.7 pg/10^5 and 1160.7 pg/10^5.

What about the “TIMP-1 Concentration” value [11] of the same molecule?
The value was 4907.8 pg/mL.

And the “TIMP-1 MFI” value [11]?
The value was 3349.3.

And the TIMP-1 conc/live cell [11]?
Its TIMP-1 conc/live cell is 971.6 pg/10^5.

What about the “TIMP-1 Concentration” value [12] of the same molecule?
Its value is 4573.6 pg/mL and 5242.0 pg/mL.

And the “TIMP-1 MFI” value [12]?
Its value is 3084.0 and 3614.5.

What about the TIMP-1 conc/live cell [12] of the same molecule?
The TIMP-1 conc/live cell was 1039.5 pg/10^5 and 903.8 pg/10^5.

What about the “TIMP-1 Concentration” value [13] of the same molecule?
The value was 5121.4 pg/mL.

What about the “TIMP-1 MFI” value [13] of the same molecule?
Its value is 3518.8.

And the TIMP-1 conc/live cell [13]?
The TIMP-1 conc/live cell was 931.2 pg/10^5.

And the “TIMP-1 Concentration” value [14]?
The value was 5155.8 pg/mL and 5087.1 pg/mL.

And the “TIMP-1 MFI” value [14]?
Its value is 3546.0 and 3491.5.

What about the TIMP-1 conc/live cell [14] of the same molecule?
Its TIMP-1 conc/live cell is 937.4 pg/10^5 and 924.9 pg/10^5.

What about the “TIMP-1 Concentration” value [15] of the same molecule?
The value was 6576.7 pg/mL.

And the “TIMP-1 MFI” value [15]?
The value was 4666.8.

What about the TIMP-1 conc/live cell [15] of the same molecule?
The TIMP-1 conc/live cell was 1047.2 pg/10^5.

And the “TIMP-1 Concentration” value [16]?
The value was 8049.3 pg/mL and 5104.1 pg/mL.

And the “TIMP-1 MFI” value [16]?
The value was 5828.5 and 3505.0.

What about the TIMP-1 conc/live cell [16] of the same molecule?
The TIMP-1 conc/live cell was 1257.7 pg/10^5 and 836.7 pg/10^5.

What about the “TIMP-1 Concentration” value [17] of the same molecule?
The value was 6554.3 pg/mL.

And the “TIMP-1 MFI” value [17]?
Its value is 4654.3.

What about the TIMP-1 conc/live cell [17] of the same molecule?
Its TIMP-1 conc/live cell is 982.4 pg/10^5.

And the “TIMP-1 Concentration” value [18]?
Its value is 6886.9 pg/mL and 6221.7 pg/mL.

And the “TIMP-1 MFI” value [18]?
The value was 4917.0 and 4391.5.

And the TIMP-1 conc/live cell [18]?
The TIMP-1 conc/live cell was 1076.1 pg/10^5 and 888.8 pg/10^5.
